Reference: publication PMC3119659, “Ligand Activation of the Prokaryotic Pentameric Ligand-Gated Ion Channel ELIC” (PLoS Biology, 2011)
Read-outs that look alike come from different tables or passages of the source.

Target: T1, ELIC (Dickeya chrysanthemi, UniProt P0C7B7)
T1 construct: expressed in transfected cells; host or cells: Xenopus laevis oocytes (cRNA injection, pTLN vector)
Experiment: cell-based
Type: cell-based, Erwinia chrysanthemi
Conditions: for n (Hill coefficient) / EC50: WT; for n (Hill coefficient): pH 7.0; for EC50: pH 7.0, two-electrode voltage clamp, fit to Hill equation, read-out: EC50 of activation of ELIC; for Imax/Imax cysteamine: pH 7.0, averages and s.d. of six measurements
Excerpt: To identify ligands that activate ELIC we have expressed the protein in Xenopus laevis oocytes and investigated the response to potential agonists by the two-electrode voltage-clamp technique. Based on the volume and chemical properties of the proposed ligand binding region and the presence of positively charged ions bound to this site, we reasoned that parts of the agonists might have a cationic character. […] Our library included different natural products such as amino acids and their derivatives, metabolites, and related synthetic substances (Figure S3A).
Constructs containing the gene of either the WT channel or point mutants preceded by the signal sequence of the chicken α7nAchR were cloned into the pTLN vector for expression in X. laevis oocytes. After linearization of the plasmid DNA by MluI, capped complementary RNA was transcribed with the mMessage mMachine kit (Ambion) and purified with the RNeasy kit (Qiagen). For expression, 1–50 ng of RNA was injected into defolliculated oocytes. Two-electrode voltage clamp measurements were performed one day after injection at 20°C (OC-725B, Warner Instrument Corp.). […] Cysteamine containing solutions were supplemented with 1 mM DTT.

[1] = ligand added to the extracellular solution, 10 mM, -60 mV, compared with 2 mM cysteamine

T1 sequence (P0C7B7 whole entry): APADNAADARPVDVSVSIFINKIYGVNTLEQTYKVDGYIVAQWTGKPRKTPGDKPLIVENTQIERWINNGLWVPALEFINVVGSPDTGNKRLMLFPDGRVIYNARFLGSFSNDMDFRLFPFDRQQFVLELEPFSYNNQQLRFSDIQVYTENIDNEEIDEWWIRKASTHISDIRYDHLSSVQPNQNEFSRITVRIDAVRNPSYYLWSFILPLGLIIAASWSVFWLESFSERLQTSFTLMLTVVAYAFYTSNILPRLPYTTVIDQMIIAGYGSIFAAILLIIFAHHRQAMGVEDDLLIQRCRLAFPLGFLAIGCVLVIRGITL

| SMILES | n (Hill coefficient) | EC50 (-60 mV) [µM] | activating current response of ELIC to the ligand [1] | Imax/Imax cysteamine | activating current response of ELIC to the ligand |
| --- | --- | --- | --- | --- | --- |
| NCCBr [bromoethylamine] | 3.1 | 885 | opening the channel | 0.94±0.04 |  |
| CCCN [aminopropane] | 3.0 | 446 | activate the channel | 0.99±0.02 |  |
| NCCCCO | 2.9 | 1700 | strong activation | 0.98±0.03 |  |
| NCCCC(=O)O [GABA] | 3.9 | 2400 | activating response at low mM concentrations | 0.79±0.09 |  |
| NCCCS [homocysteamine] |  |  | small |  |  |
| NCCC(=O)O [beta-alanine] |  |  |  |  | absent |
| CC(=O)OCC[N+](C)(C)C [acetylcholine] |  |  | ineffective |  |  |
| NCC(=O)O [glycine] |  |  |  |  | absent |
| NCCCCCN [cadaverine] |  |  | not |  |  |
